pIC50: −log10 of the molar value.

T1 sequence (Q9HBH9 whole entry): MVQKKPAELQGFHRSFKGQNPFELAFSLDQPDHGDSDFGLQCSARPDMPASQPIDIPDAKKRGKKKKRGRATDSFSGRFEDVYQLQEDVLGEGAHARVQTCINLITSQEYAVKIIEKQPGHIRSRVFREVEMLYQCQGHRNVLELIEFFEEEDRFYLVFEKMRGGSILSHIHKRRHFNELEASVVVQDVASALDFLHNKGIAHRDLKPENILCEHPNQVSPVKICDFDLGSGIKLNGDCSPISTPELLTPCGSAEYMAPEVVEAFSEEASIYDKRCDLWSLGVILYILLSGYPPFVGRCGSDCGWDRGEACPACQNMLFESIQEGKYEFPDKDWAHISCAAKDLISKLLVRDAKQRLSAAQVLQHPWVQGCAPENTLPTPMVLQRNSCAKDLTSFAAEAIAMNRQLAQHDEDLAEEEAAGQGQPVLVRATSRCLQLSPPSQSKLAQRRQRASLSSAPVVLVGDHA

This experiment has as its target T1, MNK2 (Homo sapiens, UniProt Q9HBH9).
T1 construct: the open reading frames of human Mnk1 and Mnk2a were amplified from cDNA; made in house; host or cells: E. coli BL21
Put plainly: Mnk2a in vitro kinase assay (indirect fluorescence polarization). It counts as biochemical. The settings on record: pre-activated GST-Mnk2a 2.5 nM, 20 μM ATP, 30 μM substrate peptide. An outline of the steps: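 Human GST-Mnk2a was expressed in E. coli and activated in vitro with 150 nM pre-activated ERK2 and 50 μM ATP in HEPES pH 7.4/MgCl2 buffer (45 min, 30 °C). Activity on an eIF4E Ser209-derived 12mer peptide was read by competitive fluorescence polarization with a phospho-specific antibody.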
On to `CC(=O)N(C)[C@H]1CC[C@H](Oc2cc(F)ccc2Nc2ncnc3sc(C(=O)NCCCN(C)C)c(C)c23)CC1` [Example 8, N-(3-(dimethylamino)propyl)-4-(4-fluoro-2-(trans-4-(N-methylacetamido)cyclohexyloxy)phenylamino)-5-methylthieno[2,3-d]pyrimidine-6-carboxamide], for which the pIC50 was 7.92.
`Cc1c(C(N)=O)sc2ncnc(Nc3ccc(F)cc3O[C@H]3CC[C@@H](N(C)S(C)(=O)=O)CC3)c12` [Example 9, 4-(4-Fluoro-2-(cis-4-(N-methylmethylsulfonamido)cyclohexyloxy)phenylamino)-5-methylthieno[2,3-d]pyrimidine-6-carboxamide] showed a pIC50 of 5.23.
For the molecule `CC(=O)N(C)[C@H]1CC[C@@H](Oc2cc(F)ccc2Nc2ncnc3sc(C(N)=O)c(C)c23)CC1` [Example 10], the pIC50 is 5.60.
In the case of `COC(=O)N(C)[C@H]1CC[C@H](Oc2cc(F)ccc2Nc2ncnc3sc(C(N)=O)c(C)c23)CC1` [Example 11, Methyl trans-4-(2-(6-carbamoyl-5-methylthieno[2,3-d]pyrimidin-4-ylamino)-5-fluorophenoxy)cyclohexyl(methyl)carbamate], the negative logarithm of the IC50 (pIC50) is 8.15.
To `CN[C@H]1CC[C@H](Oc2cc(F)ccc2Nc2ncnc3sc(C(N)=O)c(C)c23)CC1` [Example 12, 4-(4-Fluoro-2-(trans-4-(methylamino)cyclohexyloxy)phenylamino)-5-methylthieno[2,3-d]pyrimidine-6-carboxamide] belongs 8.15; to `Cc1c(C(N)=O)sc2ncnc(Nc3ccc(F)cc3O[C@H]3CC[C@H](NC4CCN(C)CC4)CC3)c12` [Example 16, 4-(4-Fluoro-2-(trans-4-(1-methylpiperidin-4-ylamino)cyclohexyloxy)phenylamino)-5-methylthieno[2,3-d]pyrimidine-6-carboxamide], 7.89.
To `Cc1c(C(N)=O)sc2ncnc(Nc3ccc(F)cc3OC3CCC4(CC3)OCCO4)c12` [Example 19, 4-(2-(1,4-Dioxaspiro[4.5]decan-8-yloxy)-4-fluorophenylamino)-5-methylthieno[2,3-d]pyrimidine-6-carboxamide] belongs 7.51; to `COC(=O)c1sc2ncnc(Nc3ccc(F)cc3OC3CCC(=O)CC3)c2c1C` [Example 20, Methyl 4-(4-fluoro-2-(4-oxocyclohexyloxy)phenylamino)-5-methylthieno[2,3-d]pyrimidine-6-carboxylate], 6.44.
As to `Cc1c(C(N)=O)sc2ncnc(Nc3ccc(F)cc3OC3CCC(=O)CC3)c12` [Example 21, 4-(4-Fluoro-2-(4-oxocyclohexyloxy)phenylamino)-5-methylthieno[2,3-d]pyrimidine-6-carboxamide], the negative-log IC50 (pIC50) is 7.51.
The result for `COCCN(C)[C@H]1CC[C@H](Oc2cc(F)ccc2Nc2ncnc3sc(C(N)=O)c(C)c23)CC1` [Example 22, 4-(4-Fluoro-2-(trans-4-((2-methoxyethyl)(methyl)amino)cyclohexyloxy)phenylamino)-5-methylthieno[2,3-d]pyrimidine-6-carboxamide] reads 7.19; that for `COCCN(C)[C@H]1CC[C@@H](Oc2cc(F)ccc2Nc2ncnc3sc(C(N)=O)c(C)c23)CC1` [Example 23, 4-(4-Fluoro-2-(cis-4-((2-methoxyethyl)(methyl)amino)cyclohexyloxy)phenylamino)-5-methylthieno[2,3-d]pyrimidine-6-carboxamide], 6.04.
Consider `COCCN[C@H]1CC[C@H](Oc2cc(F)ccc2Nc2ncnc3sc(C(N)=O)c(C)c23)CC1` [Example 24, 4-(4-Fluoro-2-(trans-4-(2-methoxyethylamino)cyclohexyloxy)phenylamino)-5-methylthieno[2,3-d]pyrimidine-6-amide], for which the negative-log IC50 (pIC50) is 7.85.
With `COCCN[C@H]1CC[C@@H](Oc2cc(F)ccc2Nc2ncnc3sc(C(N)=O)c(C)c23)CC1` [Example 25, 4-(4-Fluoro-2-(cis-4-(2-methoxyethylamino)cyclohexyloxy)phenylamino)-5-methylthieno[2,3-d]pyrimidine-6-carboxamide], the negative logarithm of the IC50 (pIC50) was 6.52.
As to `Cc1c(C(N)=O)sc2ncnc(Nc3ccc(F)cc3O[C@H]3CC[C@H](N4CCOCC4)CC3)c12` [Example 26, 4-(4-Fluoro-2-(trans-4-morpholinocyclohexyloxy)phenylamino)-5-methylthieno[2,3-d]pyrimidine-6-carboxamide], the pIC50 is 7.09.
`Cc1c(C(N)=O)sc2ncnc(Nc3ccc(F)cc3O[C@H]3CC[C@@H](N4CCOCC4)CC3)c12` [Example 27, 4-(4-Fluoro-2-(cis-4-morpholinocyclohexyloxy)phenylamino)-5-methylthieno[2,3-d]pyrimidine-6-carboxamide] gave a negative-log IC50 (pIC50) of 5.01.
`COC(=O)c1sc2ncnc(Nc3ccc(F)cc3O[C@@H]3C[C@H](O)C[C@H](O)C3)c2c1C` [Example 28.1] gave a negative logarithm of the IC50 (pIC50) of 6.80.
`CO[C@@H]1C[C@H](OC)C[C@H](Oc2cc(F)ccc2Nc2ncnc3sc(C(N)=O)c(C)c23)C1` [Example 29] showed a negative-log IC50 (pIC50) of 7.05.
The result for `COC(=O)c1sc2ncnc(Nc3ccc(F)cc3OC3CCC(C)(C)CC3)c2c1C` [Example 31.1] reads 7.43; that for `Cc1c(C(=O)NCCCN(C)C)sc2ncnc(Nc3ccc(F)cc3OC3CCC(C)(C)CC3)c12` [Example 32, 4-[2-(4,4-Dimethyl-cyclohexyloxy)-4-fluoro-phenylamino]-5-methyl-thieno[2,3-d]pyrimidine-6-carboxylic acid (3-dimethylamino-propyl)-amide], 7.44; that for `Cc1c(C(N)=O)sc2ncnc(Nc3ccc(F)cc3OC3CCC(F)(F)CC3)c12` [Example 33, 4-[2-(4,4-Difluoro-cyclohexyloxy)-4-fluoro-phenylamino]-5-methyl-thieno[2,3-d]pyrimidine-6-carboxylic acid amide], 8.15.
Molecule `Cc1c(C(=O)NCCCN(C)C)sc2ncnc(Nc3ccc(F)cc3OC3CCC(F)(F)CC3)c12` [Example 34, 4-[2-(4,4-Difluoro-cyclohexyloxy)-4-fluoro-phenylamino]-5-methyl-thieno[2,3-d]pyrimidine-6-carboxylic acid (3-dimethylamino-propyl)-amide] gave a pIC50 of 7.55.
The molecule `CC(=O)N[C@H]1C[C@H](Oc2cc(F)ccc2Nc2ncnc3sc(C(=O)O)c(C)c23)C1` [Example 35.2, 4-[2-(trans-3-Acetylamino-cyclobutoxy)-4-fluoro-phenylamino]-5-methyl-thieno[2,3-d]pyrimidine-6-carboxylic acid] had a pIC50 of 7.64.
`CC(=O)N[C@H]1C[C@H](Oc2cc(F)ccc2Nc2ncnc3sc(C(N)=O)c(C)c23)C1` [Example 35.3, 4-[2-(trans-3-Acetylamino-cyclobutoxy)-4-fluoro-phenylamino]-5-methyl-thieno[2,3-d]pyrimidine-6-carboxylic acid amide] had a negative logarithm of the IC50 (pIC50) of 7.64.
With `CC(=O)N[C@H]1C[C@H](Oc2cc(F)ccc2Nc2ncnc3sc(C(=O)NCCCN(C)C)c(C)c23)C1` [Example 36], the negative logarithm of the IC50 (pIC50) was 7.18.
Take `CCNC(=O)c1sc2ncnc(Nc3ccc(F)cc3O[C@H]3C[C@H](NC(C)=O)C3)c2c1C` [Example 37]: the negative logarithm of the IC50 (pIC50) is 7.16.
`CONC(=O)c1sc2ncnc(Nc3ccc(F)cc3O[C@H]3C[C@H](NC(C)=O)C3)c2c1C` [Example 38]: the pIC50 is 7.15.
For `CC(=O)N[C@H]1C[C@H](Oc2cc(F)ccc2Nc2ncnc3sc(C(=O)NCCCN4CCCC4)c(C)c23)C1` [Example 39], the pIC50 was 7.21.
